Read-outs that look alike come from different tables or passages of the source.
Key:
5-HT2CR [1] = target: T1, 5-HT2CR (Homo sapiens, UniProt P28335); details: agonist mode; partial agonist
5-HT2CR [2] = target: T1, 5-HT2CR; details: antagonist mode against 5-HT-induced response; incomplete inhibition
5-HT2AR [3] = target: T2, 5-HT2AR (Homo sapiens, UniProt P28223); assay: cell-based; details: U2OS, read-out: 5-HT2AR Rmax (beta-arrestin)
5-HT2AR [4] = target: T2, 5-HT2AR; assay: cell-based; details: U2OS, read-out: 5-HT2AR Rmax (internalization)
5-HT2CR [5] = target: T1, 5-HT2CR; assay: cell-based
5-HT2CR [6] = target: T1, 5-HT2CR; assay: cell-based; remark: listed apart in the source
5-HT1BR [7] = target: T3, 5-HT1BR (Homo sapiens, UniProt P28222); assay: cell-based
5-HT1BR [8] = target: T3, 5-HT1BR; assay: cell-based; details: CHO-K1, read-out: 5-HT1BR Rmax (cAMP)
5-HT1BR [9] = target: T3, 5-HT1BR; assay: cell-based; remark: listed apart in the source

T3 sequence (P28222 whole entry): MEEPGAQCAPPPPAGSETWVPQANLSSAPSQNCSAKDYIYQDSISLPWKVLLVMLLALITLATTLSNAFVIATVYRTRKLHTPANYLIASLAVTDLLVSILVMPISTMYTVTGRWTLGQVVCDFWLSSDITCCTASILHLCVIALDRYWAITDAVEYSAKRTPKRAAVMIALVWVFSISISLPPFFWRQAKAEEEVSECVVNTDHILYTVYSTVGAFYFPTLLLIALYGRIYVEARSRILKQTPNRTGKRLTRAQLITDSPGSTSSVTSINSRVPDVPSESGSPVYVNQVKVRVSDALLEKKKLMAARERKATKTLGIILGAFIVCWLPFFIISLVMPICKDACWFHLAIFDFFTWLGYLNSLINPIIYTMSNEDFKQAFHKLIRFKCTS
T1 sequence (P28335 33-458): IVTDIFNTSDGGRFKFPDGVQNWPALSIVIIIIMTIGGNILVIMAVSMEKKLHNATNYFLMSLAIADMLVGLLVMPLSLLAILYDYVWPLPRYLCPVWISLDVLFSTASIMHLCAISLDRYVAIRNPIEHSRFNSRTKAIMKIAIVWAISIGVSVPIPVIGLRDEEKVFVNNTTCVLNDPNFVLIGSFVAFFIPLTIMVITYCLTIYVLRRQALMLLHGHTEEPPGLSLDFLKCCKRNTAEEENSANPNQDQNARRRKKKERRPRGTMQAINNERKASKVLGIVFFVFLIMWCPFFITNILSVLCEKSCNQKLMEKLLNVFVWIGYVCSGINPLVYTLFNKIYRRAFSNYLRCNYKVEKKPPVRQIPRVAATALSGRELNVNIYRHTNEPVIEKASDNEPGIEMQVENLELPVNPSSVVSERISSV
T2 sequence (P28223 whole entry): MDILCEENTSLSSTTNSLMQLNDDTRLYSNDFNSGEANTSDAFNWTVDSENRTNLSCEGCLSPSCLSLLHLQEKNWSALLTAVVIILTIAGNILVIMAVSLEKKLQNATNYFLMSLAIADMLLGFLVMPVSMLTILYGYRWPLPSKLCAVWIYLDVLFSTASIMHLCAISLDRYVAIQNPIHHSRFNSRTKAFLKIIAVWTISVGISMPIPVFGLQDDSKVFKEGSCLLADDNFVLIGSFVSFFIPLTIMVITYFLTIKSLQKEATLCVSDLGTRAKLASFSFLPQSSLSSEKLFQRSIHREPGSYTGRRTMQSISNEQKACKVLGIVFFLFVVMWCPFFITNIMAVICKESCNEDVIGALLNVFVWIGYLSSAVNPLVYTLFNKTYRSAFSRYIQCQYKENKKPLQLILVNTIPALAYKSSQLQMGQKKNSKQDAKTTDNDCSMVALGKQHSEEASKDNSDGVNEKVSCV

For `COc1cc(C(F)(F)F)c(OC)cc1[C@@H]1CCCNC1` [LPH-5, (S)-3-(2,5-dimethoxy-4-(trifluoromethyl)phenyl)piperidine], the EC50 (5-HT2CR [1]) was 110 [pEC50 6.96 ± 0.07] nM, the IC50 (5-HT2CR [2]) was 300 [pIC50 6.52 ± 0.08] nM and the Emax (5-HT2AR [3]) was 61 ± 11%. It also gave an Emax (5-HT2AR [4]) of 94 ± 11%, an IC50 (5-HT2CR [5]) of 38 nM and an EC50 (5-HT2CR [6]) of over 30000 nM. For the same compound, the EC50 (5-HT1BR [7]) was 870 nM, the Emax (5-HT1BR [8]) was 78% and the EC50 (5-HT1BR [9]) was over 30000 nM.

Source: paper doi:10.1101/2024.04.19.590212v1 (biorxiv, 2024)
